{
  "source": "patent US10765631B2",
  "about": "“Liposomes for modulating Wiskott-Aldrich syndrome protein” (BAR-ILAN UNIVERSITY, priority 2013, dated 2020)",
  "molecules": {"B1": {"name": "Mix: mixture of the double-stranded siRNA duplexes of SEQ ID NOS. 1-4 (nucleic acid)", "chain 1": "UGACUGAGUGGCUGAGUUA", "chain 2": "GACCUAGCCCAGCUGAUAA", "chain 3": "GAAUGGAUUUGACGUGAAC", "chain 4": "GCCGAGACCUCUAAACUUA", "modifications": "listed as RNA, chemistry not given here"}, "B2": {"name": "N.S. siRNA: nonsense siRNA control made from duplexes of SEQ ID NO. 9-12 (Table 5) (nucleic acid)", "chain 1": "UAGCGACUAAACACAUCAAUAGGCUAUGAAGAGAUAC", "chain 2": "AUGUAUUGGCCUGUAUUAG", "chain 3": "AUGAACGUGAAUUGCUCAA", "chain 4": "UGGUUUACAUGUCGACUAA", "modifications": "listed as RNA, chemistry not given here"}},
  "key": {"WASp [1]": {"target": "T1, WASp (Homo sapiens, UniProt P42768)", "T1 construct": "expressed in transfected cells; host or cells: 293T cells, calcium-phosphate transfection", "T1 sequence (P42768 1-502)": "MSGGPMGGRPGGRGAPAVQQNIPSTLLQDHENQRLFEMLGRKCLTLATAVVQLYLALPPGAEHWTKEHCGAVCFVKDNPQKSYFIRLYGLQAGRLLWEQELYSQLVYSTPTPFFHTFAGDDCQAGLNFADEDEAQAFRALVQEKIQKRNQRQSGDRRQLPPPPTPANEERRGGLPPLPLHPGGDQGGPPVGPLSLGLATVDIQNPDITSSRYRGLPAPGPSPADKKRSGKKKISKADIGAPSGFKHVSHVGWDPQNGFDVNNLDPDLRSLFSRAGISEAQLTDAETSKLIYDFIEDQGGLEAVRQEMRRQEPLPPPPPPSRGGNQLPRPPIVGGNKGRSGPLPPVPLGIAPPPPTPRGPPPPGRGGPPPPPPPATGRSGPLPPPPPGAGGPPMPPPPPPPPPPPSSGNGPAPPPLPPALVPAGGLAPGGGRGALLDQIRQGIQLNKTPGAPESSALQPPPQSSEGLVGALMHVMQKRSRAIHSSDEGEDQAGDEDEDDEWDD", "test": "YFP-WASp expression in 293T cells treated with compounds, densitometric Western blot analysis", "assay_type": "cell-based", "settings": "for effect on WASp expression in cells: 293T cells transfected with YFP-WASp; for Relative expression: YFP-WASp expression in transfected 293T cells relative to DMSO solvent control, compound 10-80 μM, overnight", "experimental": "Compounds were obtained and from ChemBridge Corporation. San Diego, Calif., USA. Of the compounds obtained, 14 were considered potential agents for modulating WASp expression, by their potential to bind to WASp. The 14 compounds were tested in 293T cells using the following procedure.\nThe compounds were individually dissolved in DMSO to make a stock solution of 20 millimolar (mM) and kept stored at −20° C. 293T cells were prepared to mid log phase, ˜60-80% confluence, and were transfected with 15 μg of yellow-fluorescent protein, YFP-WASp plasmid (6023), using a Calcium-phosphate transfection protocol. Cells were collected and counted. 1-2×10^6 cells per sample in 6-well supplemented with 2-4 ml complete (10% FCS) DMEM medium (0.5×10^6 cells/ml). Cells were plated in 6 wells (0.5×10^6 cells/ml×Number of samples) and pre-incubate at 37°, 5% CO2 for at least 4 h (for the cells to adhere. 1 ml of the medium in which the cells were grown is taken, and added to the compound (10-80 μM). The medium, with the compound, was added back to the cells in the plate, drop-wise. Cells were incubated overnight at 37° C., 5% CO2. Densitometric analysis of YFP-WASp expression in the cells treated with the compounds, using Western blot analysis. The compounds with a relative 1.5-fold change (either increase or decrease) of expression relative cells which were exposed to DMSO solvent control, are listed in table 2 below. Table 2 lists the compounds' modulation of WASp expression levels as a function of relative expression of WASp in relation to control."}, "WASp [2]": {"system": "WASp", "test": "WASp gene silencing by siRNA in T cell leukemic cells, Western blot", "assay_type": "cell-based", "experimental": "As shown in the previous examples, WASp is overexpressed in malignant cells. Gene silencing of WASp expression using siRNA was tested. WASp was silenced using commercially available siRNA oligonucleotides. A mixture of the following oligonucleotides, each in the form of double-stranted siRNA duplex with its corresponding sequence at an amount of 500 pico-mole was introduced to 1×10^7 cells:\nThese experiments were performed in T cell leukemic cells. Silencing efficiency of about 90% was achieved 48 hours after transfection, when compared to non-specific (N.S) siRNA-treated cells.\nA number of siRNA duplexes were tested in cells as in example 1E. The following double-stranded siRNA sequences were used: SEQ ID NO. 1 and its complementary sequence; SEQ ID NO. 2 and its complementary sequence; SEQ ID NO. 3 and its complementary sequence; SEQ ID NO. […] and its complementary sequence (designated as 1-4). 500 picomole of each double-stranded siRNA was used. In addition, a nonsense siRNA sequence (designated as “N.S. siRNA”) was used as a control. Control N.S. siRNA was made from 125 duplexes of each of the siRNA molecules in Table 5:\nIn addition, a mixture of the siRNAs comprising SEQ ID NOS. 1-4 (designated as “Mix”) was also used, comprising 125 picomole of each. Upon analysis with Western blot, it was shown that all siRNA duplexes were effective in downregulating WASp, with the siRNA of SEQ. ID NO."}},
  "data": [
    {"molecule": "COCC1CCN(c2ccc(C(=O)N3CCC(N4CCOCC4)CC3)cn2)C1", "note": "(centres unmarked) [Compound 4, 4-[1-({6-[3-(methoxymethyl)pyrrolidin-1-yl]pyridin-3-yl}carbonyl)piperi-din-4-yl]morpholine]", "values": [
      {"measurement": "effect on WASp expression in cells", "setting": "WASp [1]", "result": "increase WASp expression"},
      {"measurement": "Relative expression", "setting": "WASp [1]", "result": 1.5}
    ]},
    {"molecule": "CC(=O)N[C@H]1C[C@@H](c2ccc3c(c2)nnn3C)O[C@@H](c2ccc(Cl)cc2)C1", "note": "[Compound 6, N-[(2R,4R,6S)-2-(4-chloro-phenyl)-6-(1-methyl-1H-1,2,3-benzotriazol-5-yl)tetrahydro-2H-pyran-4-yl]acetamide]", "values": [
      {"measurement": "effect on WASp expression in cells", "setting": "WASp [1]", "result": "increase WASp expression"},
      {"measurement": "Relative expression", "setting": "WASp [1]", "result": 6.7}
    ]},
    {"molecule": "Cc1cc(C)n(C2CCN(C(=O)c3cc(COc4ccccc4)[nH]n3)C2)n1", "note": "(centres unmarked) [Compound 7, 3,5-dimethyl-1-(1-{[5-(phenoxy-methyl)-1H-pyrazol-3-yl]carbonyl}pyrrolidin-3-yl)-1H-pyrazole]", "values": [
      {"measurement": "effect on WASp expression in cells", "setting": "WASp [1]", "result": "increase WASp expression"},
      {"measurement": "Relative expression", "setting": "WASp [1]", "result": 2.1}
    ]},
    {"molecule": "CC(C)c1n[nH]c2c1CN(C(=O)c1cccc(C#CC(C)(C)O)c1)CC2", "note": "[Compound 10, 4-{3-[(3-isopropyl-1,4,6,7-tetrahydro-5H-pyrazolo[4,3-c]pyridin-5-yl)carbonyl]phenyl}-2-methylbut-3-yn-2-ol]", "values": [
      {"measurement": "effect on WASp expression in cells", "setting": "WASp [1]", "result": "effective in decreasing WASp expression"},
      {"measurement": "Relative expression", "setting": "WASp [1]", "result": 0.6}
    ]},
    {"molecule": "COc1ccc(CN2C(=O)N(CC(C)C)C3(CCN(C4Cc5ccccc5C4)CC3)C2=O)cc1", "note": "[Compound 13, 8-(2,3-dihydro-1H-inden-2-yl)-1-isobutyl-3-(4-methoxy-benzyl)-1,3,8-triazaspiro[4.5] decane-2,4-dione]", "values": [
      {"measurement": "effect on WASp expression in cells", "setting": "WASp [1]", "result": "effective in decreasing WASp expression"},
      {"measurement": "Relative expression", "setting": "WASp [1]", "result": 0.3}
    ]},
    {"molecule": "COc1ccccc1-c1cccc(C(=O)NC(C)Cc2ccccn2)c1", "note": "(centres unmarked) [Compound 14, 2′-methoxy-N-(1-methyl-2-pyridin-2-ylethyl)biphenyl-3-carboxamide]", "values": [
      {"measurement": "effect on WASp expression in cells", "setting": "WASp [1]", "result": "effective in decreasing WASp expression"},
      {"measurement": "Relative expression", "setting": "WASp [1]", "result": 0.5}
    ]},
    {"molecule": "B1", "values": [
      {"measurement": "Silencing efficiency", "setting": "WASp [2]; 48 hours after transfection, T cell leukemic cells, 500 pico-mole to 1×10^7 cells, compared to non-specific (N.S) siRNA-treated cells", "result": "about 90%"}
    ]},
    {"molecule": "B2", "values": [
      {"measurement": "downregulating WASp", "setting": "WASp [2]; Western blot, 500 picomole double-stranded siRNA, cells as in example 1E, FIG. 2", "result": "ineffective in downregulating WASp"}
    ]}
  ]
}
